From ChEMBL document CHEMBL6114998, “Design, Synthesis, and Pharmacological Evaluation of Quinazoline and Quinoline Derivatives as Potent ENPP1 Inhibitors for Cancer Immunotherapy” (J Med Chem, 2025)
Activity calls are given as the source filed them. The calls are words filed in the database; no cut-off is given here.

What was measured:
[1] = Cmax in Sprague-Dawley rat at 10 mg/kg, iv measured upto 24 hrs by LC-MS/MS analysis; type: ADME, organism-based; conditions: in vivo
CT26 [2] = assay: Antitumor activity against mouse CT26 cells allografted in female BALB/c mouse assessed as increase in infiltration of CD8+T cells in tumor tissue at 200 mg/kg QD, ip in presence of anti-PD-L1 antibody measured every 2 days for 12 days by immunohistochemical analysis; type: functional, organism-based; conditions: time 12.0 day
[3] = AUC(0 to t) in Sprague-Dawley rat at 10 mg/kg, iv measured upto 24 hrs by LC-MS/MS analysis; type: ADME, organism-based; conditions: in vivo
THP1-Dual KO-STING = assay: Activation of STING-mediated immune response in human THP1-Dual KO-STING cells assessed as cGAMP-induced ISRE activation at 1 uM preincubated with conditioned medium containing 36 hrs compound treated with human MDA-MB-231 cells and measured after 24 hrs by quanti-luc luciferase assay; type: cell-based; conditions: filed as activator, time 60.0 hrs
[4] = molecular target: Voltage-gated inwardly rectifying potassium channel KCNH2 (Homo sapiens, UniProt Q12809); assay: Inhibition of hERG expressed in CHO cells by QPatch automated patch-clamp assay; type: toxicity, cell-based
CT26 [5] = assay: Antitumor activity against mouse CT26 cells allografted in female BALB/c mouse assessed as increase in infiltration of CD8+T cells in tumor tissue at 200 mg/kg QD, ip measured every 2 days for 12 days by immunohistochemical analysis; type: functional, organism-based; conditions: time 12.0 day
THP-1 [6] = assay: Activation of STING signalling pathway in human THP-1 cells assessed as increase in IRF3 phosphorylation at 300 nM preincubated with compound for 2 hrs followed by cGAMP addition and measured after 3 hrs by Western blot analysis; type: cell-based; conditions: filed as activator, time 5.0 hrs
CT26 [7] = assay: Antitumor activity against mouse CT26 cells allografted in female BALB/c mouse assessed as tumor growth inhibition at 200 mg/kg QD, ip measured every 2 days for 12 days relative to control; type: functional; conditions: CT26, 288 h, time 12 day, read-out: TGI
CT26 [8] = assay: Antitumor activity against mouse CT26 cells allografted in female BALB/c mouse assessed as increase in M1-type macrophages in tumor tissue at 200 mg/kg QD, ip measured every 2 days for 12 days by immunohistochemical analysis; type: functional, organism-based; conditions: time 12.0 day
CT26 [9] = assay: Antitumor activity against mouse CT26 cells allografted in female BALB/c mouse assessed as increase in CD8+T cells in tumor tissue at 200 mg/kg QD, ip in presence of anti-PD-L1 antibody measured every 2 days for 12 days by immunofluorescence analysis; type: functional, organism-based; conditions: time 12.0 day
THP1-Dual = assay: Activation of STING-mediated immune response in human THP1-Dual cells assessed as increase in cGAMP-induced ISRE activation preincubated in conditioned medium containing 36 hrs compound treated with human MDA-MB-231 cells measured after 24 hrs by quanti-luc luciferase assay; type: cell-based; conditions: filed as activator, time 60.0 hrs
[10] = molecular target: T1, Ectonucleotide pyrophosphatase/phosphodiesterase family member 1 (Homo sapiens, UniProt P22413); assay: Inhibition of ENPP1 in human MDA-MB-231 cells using p-NPh-5TMP as substrate at pH 8.5 measured after 60 mins; type: cell-based
T1 sequence (P22413 whole entry): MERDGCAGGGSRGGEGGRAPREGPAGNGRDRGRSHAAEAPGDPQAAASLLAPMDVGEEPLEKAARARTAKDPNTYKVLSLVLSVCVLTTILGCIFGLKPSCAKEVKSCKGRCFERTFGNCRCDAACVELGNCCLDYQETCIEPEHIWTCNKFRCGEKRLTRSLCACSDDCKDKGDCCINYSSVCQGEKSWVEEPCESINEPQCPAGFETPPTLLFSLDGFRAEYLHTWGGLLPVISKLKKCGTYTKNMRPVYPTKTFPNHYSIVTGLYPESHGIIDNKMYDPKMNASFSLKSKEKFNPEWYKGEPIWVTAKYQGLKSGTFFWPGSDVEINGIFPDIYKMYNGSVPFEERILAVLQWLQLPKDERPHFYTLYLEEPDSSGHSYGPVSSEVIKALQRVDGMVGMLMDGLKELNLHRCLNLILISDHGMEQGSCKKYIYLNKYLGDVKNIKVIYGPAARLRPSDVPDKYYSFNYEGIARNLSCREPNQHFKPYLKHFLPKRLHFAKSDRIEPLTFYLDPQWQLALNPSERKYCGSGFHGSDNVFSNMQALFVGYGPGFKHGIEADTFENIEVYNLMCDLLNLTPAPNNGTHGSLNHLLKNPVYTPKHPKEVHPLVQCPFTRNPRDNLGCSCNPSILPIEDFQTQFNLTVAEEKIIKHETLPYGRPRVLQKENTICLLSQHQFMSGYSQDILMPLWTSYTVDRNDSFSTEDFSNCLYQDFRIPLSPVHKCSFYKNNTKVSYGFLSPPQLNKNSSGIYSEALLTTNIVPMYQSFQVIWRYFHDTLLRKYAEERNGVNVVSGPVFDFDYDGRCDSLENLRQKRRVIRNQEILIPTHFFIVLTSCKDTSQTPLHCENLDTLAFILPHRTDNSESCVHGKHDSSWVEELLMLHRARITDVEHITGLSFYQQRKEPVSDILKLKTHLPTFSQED

CT26 [11] = assay: Antitumor activity against mouse CT26 cells allografted in female BALB/c mouse plasma assessed as increase in IP-10 secretion in tumor tissue at 200 mg/kg QD, ip in presence of anti-PD-L1 antibody measured every 2 days for 12 days by ELISA analysis; type: functional, organism-based; conditions: time 12.0 day
[12] = Inhibition of TK (unknown origin) at 1 uM by KINOMEscan assay; conditions: Homo sapiens
THP-1 [13] = assay: Activation of STING signalling pathway in human THP-1 cells assessed as increase in TBK1 phosphorylation at 300 nM preincubated with compound for 2 hrs followed by cGAMP addition and measured after 3 hrs by Western blot analysis; type: cell-based; conditions: filed as activator, time 5.0 hrs
[14] = Half life in Sprague-Dawley rat at 10 mg/kg, iv measured upto 24 hrs by LC-MS/MS analysis; type: ADME, organism-based; conditions: in vivo
CT26 [15] = assay: Antitumor activity against mouse CT26 cells allografted in female BALB/c mouse assessed as decrease in M2-type macrophages in tumor tissue at 200 mg/kg QD, ip measured every 2 days for 12 days by immunohistochemical analysis; type: functional, organism-based; conditions: time 12.0 day

Sequence of Voltage-gated inwardly rectifying potassium channel KCNH2 (Q12809 whole entry): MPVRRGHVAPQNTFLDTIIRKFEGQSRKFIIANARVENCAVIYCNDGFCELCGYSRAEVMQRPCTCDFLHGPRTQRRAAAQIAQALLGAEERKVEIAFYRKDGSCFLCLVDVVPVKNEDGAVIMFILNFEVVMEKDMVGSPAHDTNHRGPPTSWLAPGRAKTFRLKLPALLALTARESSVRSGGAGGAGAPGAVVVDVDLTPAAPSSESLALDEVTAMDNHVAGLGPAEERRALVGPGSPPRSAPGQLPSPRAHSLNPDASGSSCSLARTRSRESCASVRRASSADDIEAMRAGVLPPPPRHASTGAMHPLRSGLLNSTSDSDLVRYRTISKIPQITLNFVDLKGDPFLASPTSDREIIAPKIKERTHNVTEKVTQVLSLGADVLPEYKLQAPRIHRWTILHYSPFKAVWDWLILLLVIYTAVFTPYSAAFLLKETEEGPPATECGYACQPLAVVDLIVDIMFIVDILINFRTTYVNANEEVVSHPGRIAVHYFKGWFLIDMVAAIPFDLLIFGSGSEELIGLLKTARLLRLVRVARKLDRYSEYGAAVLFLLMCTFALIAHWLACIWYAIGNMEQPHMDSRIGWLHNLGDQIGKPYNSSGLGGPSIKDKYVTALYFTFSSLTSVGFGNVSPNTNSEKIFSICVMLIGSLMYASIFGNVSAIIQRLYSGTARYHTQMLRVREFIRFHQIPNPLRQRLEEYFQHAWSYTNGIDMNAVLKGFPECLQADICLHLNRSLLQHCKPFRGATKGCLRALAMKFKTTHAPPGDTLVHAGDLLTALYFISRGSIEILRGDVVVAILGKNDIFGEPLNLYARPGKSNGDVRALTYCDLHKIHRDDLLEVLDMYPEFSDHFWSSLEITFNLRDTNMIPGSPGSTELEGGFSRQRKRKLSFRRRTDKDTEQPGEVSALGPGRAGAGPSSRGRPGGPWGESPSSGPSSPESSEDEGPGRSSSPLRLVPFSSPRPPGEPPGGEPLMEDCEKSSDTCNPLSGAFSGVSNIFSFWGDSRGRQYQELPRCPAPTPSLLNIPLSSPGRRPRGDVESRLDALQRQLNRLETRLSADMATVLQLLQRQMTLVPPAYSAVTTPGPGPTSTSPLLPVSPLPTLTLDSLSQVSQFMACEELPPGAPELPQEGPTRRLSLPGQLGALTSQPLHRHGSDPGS

**Q.** Which Cmax [1] does the source give for `COc1cccc2c(N3CCC(O)(CNS(N)(=O)=O)CC3)ncnc12` here?
**A.** 3220 ng/mL

**Q.** And the Activity (CT26 [2])?
**A.** Active

**Q.** What about the AUC(0-t) at 24 h [3] of the same compound?
**A.** 2030 ng·h/mL

**Q.** And the Activity (THP1-Dual KO-STING)?
**A.** Active

**Q.** What about the IC50 [4] of the same compound?
**A.** > 40000 nM

**Q.** And the Activity (CT26 [5])?
**A.** Active

**Q.** And the Activity (THP-1 [6])?
**A.** Active

**Q.** And the inhibition in vivo at 200 mg/kg (CT26 [7])?
**A.** 39.9%

**Q.** And the Activity (CT26 [8])?
**A.** Active

**Q.** And the Activity (CT26 [9])?
**A.** Active

**Q.** What about the Activity (THP1-Dual) of the same compound?
**A.** Dose-dependent-effect

**Q.** What about the IC50 [10] of the same compound?
**A.** 42 nM

**Q.** And the Activity (CT26 [11])?
**A.** Active

**Q.** And the inhibition [12]?
**A.** inactive

**Q.** What about the Activity (THP-1 [13]) of the same compound?
**A.** Active

**Q.** What about the half-life [14] of the same compound?
**A.** 46.7 min

**Q.** What about the Activity (CT26 [15]) of the same compound?
**A.** Active
